Results on 15 compounds are retold here after ChEMBL document CHEMBL1201862, “PubChem BioAssay data set” (2004).

Test [1] in a line: cells. Format: functional, cell-based.
Test [2] deals with T1, Nuclear receptor subfamily 0 group B member 1 (Homo sapiens, UniProt P51843).
T1 sequence (P51843 whole entry): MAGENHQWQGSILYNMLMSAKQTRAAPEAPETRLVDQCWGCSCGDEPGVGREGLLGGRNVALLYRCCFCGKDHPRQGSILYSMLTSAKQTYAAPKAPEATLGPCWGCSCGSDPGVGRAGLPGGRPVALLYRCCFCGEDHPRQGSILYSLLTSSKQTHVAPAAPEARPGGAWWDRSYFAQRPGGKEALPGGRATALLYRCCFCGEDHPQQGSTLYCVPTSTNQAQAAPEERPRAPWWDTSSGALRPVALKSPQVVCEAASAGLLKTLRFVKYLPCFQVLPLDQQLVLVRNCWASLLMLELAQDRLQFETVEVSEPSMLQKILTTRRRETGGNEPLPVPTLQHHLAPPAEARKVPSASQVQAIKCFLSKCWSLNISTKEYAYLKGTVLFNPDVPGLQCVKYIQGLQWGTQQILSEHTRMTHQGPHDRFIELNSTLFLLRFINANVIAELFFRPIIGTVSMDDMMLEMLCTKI
Format: functional, cell-based.

Another test addresses Paired box protein Pax-8 (Homo sapiens, UniProt Q06710). Briefly: inhibitors of PAX8-driven TPO luciferase reporter, dose response, RMG-I cells, cherry-pick (AID 687027).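 Also: luciferase reporter driven by Pax8 target thyroperoxidase promoter measured by SteadyGlo luminescence.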 It counts as functional, cell-based. For orientation: In a reporter assay the amount or activity of a reporter protein is the signal.
Test [3] can be described thus: NIH:OVCAR-3 ovarian cancer cell cytotoxicity, dose response, PAX8 inhibitor project, plate reader, dry powder samples (AID 743044). Format: functional, cell-based.
Test [4] in a line: IGROV1 ovarian cancer cell cytotoxicity, dose response, PAX8 inhibitor project, plate reader, dry powder samples (AID 743043). Format: functional, cell-based. The settings on record: IGROV-1.
The nature of test [5]: HepG2 cell cytotoxicity, dose response, cytotoxicity control, ATP luminescence, cherry-pick, set 6 (AID 1053125). Format: functional, cell-based.
A short description of test [6]: cells. To be noted: A549.
Test [7] is described as follows: cells. To be noted: HEK293.
Test [8] concerns the target T2, Corticotropin-releasing factor receptor 2/Corticotropin-releasing factor-binding protein (Homo sapiens, UniProt P24387+Q13324).
T2 sequence (Q13324 whole entry): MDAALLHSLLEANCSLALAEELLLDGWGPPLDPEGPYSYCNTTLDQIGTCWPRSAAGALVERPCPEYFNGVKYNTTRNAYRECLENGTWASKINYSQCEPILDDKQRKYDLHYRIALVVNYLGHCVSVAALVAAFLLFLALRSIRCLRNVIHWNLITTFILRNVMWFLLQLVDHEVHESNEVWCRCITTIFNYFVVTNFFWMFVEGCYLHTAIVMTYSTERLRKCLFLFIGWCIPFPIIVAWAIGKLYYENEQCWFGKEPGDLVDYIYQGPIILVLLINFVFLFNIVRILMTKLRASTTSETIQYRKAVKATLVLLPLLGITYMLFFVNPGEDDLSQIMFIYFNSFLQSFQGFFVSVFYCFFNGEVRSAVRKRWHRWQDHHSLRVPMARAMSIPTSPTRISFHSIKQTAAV
T2 sequence (P24387 whole entry): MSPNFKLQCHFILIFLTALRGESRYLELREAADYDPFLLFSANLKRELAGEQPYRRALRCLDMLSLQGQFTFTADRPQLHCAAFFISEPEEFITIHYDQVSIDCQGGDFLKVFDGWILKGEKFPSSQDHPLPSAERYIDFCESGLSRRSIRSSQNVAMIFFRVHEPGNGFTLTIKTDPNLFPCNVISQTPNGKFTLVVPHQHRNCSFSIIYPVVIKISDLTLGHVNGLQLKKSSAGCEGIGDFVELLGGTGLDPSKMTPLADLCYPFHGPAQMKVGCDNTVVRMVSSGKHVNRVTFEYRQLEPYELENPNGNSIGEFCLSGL
Briefly: activators of CRF receptor 2 with binding protein – uHTS hits, confirmation (AID 602473). To be noted: read-out: EC50_Mean. Format: functional.

The target of test [9] is Long-chain-fatty-acid--AMP ligase FadD28 (Mycobacterium tuberculosis, UniProt P9WQ59). Briefly: Fluorescence polarization aasay to screen for inhibitors that compete for the binding of FadD28 to a bisubstrate Measured in Biochemical System Using Plate Reader - 2147-01_Inhibitor_Dose_CherryPick_Activity. Format: functional, Mycobacterium tuberculosis H37Rv.
The target of a further test is Major prion protein (Homo sapiens, UniProt P04156). Format: functional, cell-based.
A short description of test [10]: cells.
A short description of test [11]: T. cruzi growth inhibition in host cells, dose response, cell-based, plate reader, dry powder, set 2 (AID 652275). It counts as functional.
Test [12] concerns the target Peroxisome proliferator-activated receptor gamma/Nuclear receptor coactivator 1 (Homo sapiens, UniProt P37231). As to the kind of experiment: TR-FRET dose response biochemical High Throughput Screening assay for agonists of the steroid receptor coactivator 1 (SRC-1) recruitment by the peroxisome proliferator-activated receptor gamma (PPAR gamma): non-selective agonists. [Related pubchem assays (depositor defined):AID1300, AID1808, AID504735, AID631]. It counts as protein assay. On the technique in general: TR-FRET usually uses a lanthanide donor and a delayed reading to cut background.

Test [13] addresses Peroxisome proliferator-activated receptor gamma/Nuclear receptor coactivator 3 (Homo sapiens, UniProt P37231). Briefly: TR-FRET dose response biochemical High Throughput Screening assay for agonists of the steroid receptor coactivator 3 (SRC-3) recruitment by the peroxisome proliferator-activated receptor gamma (PPAR gamma): non-selective agonists. [Related pubchem assays: 1301 (Confirmation screen.), 1048 (Primary screen.)]. Format: functional.

The target in test [14] is Peroxisome proliferator-activated receptor gamma/Nuclear receptor coactivator 2 (Homo sapiens, UniProt P37231). As to the kind of experiment: TR-FRET dose response biochemical High Throughput Screening assay for agonists of the steroid receptor coactivator 2 (SRC-2) recruitment by the peroxisome proliferator-activated receptor gamma (PPAR gamma): non-selective agonists. [Related pubchem assays: 1297, 1032 ]. Format: functional.

Test [15] deals with Mitogen-activated protein kinase 10 (Homo sapiens, UniProt P53779). Briefly: Dose response biochemical screening assay for inhibitors of c-Jun N-Terminal Kinase 3 (JNK3). [Related pubchem assays: 746 ].
The next test has as its target fMet-Leu-Phe receptor (Homo sapiens, UniProt P21462). As to the kind of experiment: FPR ligands, dose response (AID 519). Format: functional.
Test [16] in a line: A549 cell cytotoxicity, dose response, cytotoxicity control, plate reader, cherry-pick, antagonist series (AID 743412). Format: functional, cell-based.
A short description of test [17]: HepG2 cell cytotoxicity, dose response, cytotoxicity control, plate reader, cherry-pick, antagonist series (AID 743416). Format: functional, cell-based.
A short description of test [18]: inhibitors of firefly luciferase expression or activity, dose response, H4 neuroglioma cells, luminescence (AID 1990). It counts as functional, cell-based.
For test [19], the system named is BJ. As to the kind of experiment: cytotoxicity toward BJ-TERT fibroblasts, dose response, cell-based, RAS-independent, luminescence (AID 1933). It counts as functional. To be noted: Homo sapiens.
Test [20] is described as follows: Luminescence Cell-Based Dose Response HTS to Identify Inhibitors of 5'UTR Stem-Loop Driven Prion Protein mRNA Translation in H4 Neuroglioblastoma Cells. [Related pubchem assays: 1827 (Project Summary), 1813 (Primary HTS)]. Format: functional.
Test [21] concerns BJ. Briefly: cells. It counts as functional, cell-based. The settings on record: Homo sapiens.
Test [22] deals with BJ. Briefly: cytotoxicity toward BJ-TERT-LT-ST fibroblasts, dose response, cell-based, RAS-independent, luminescence (AID 1935).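 Also: BJ fibroblasts immortalized with TERT plus LT and ST oncogenes.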 To be noted: Homo sapiens. It counts as functional.
Test [23] in a line: cytotoxicity toward DRD oncogenic fibroblasts, dose response, cell-based, non-viral oncogenic, luminescence (AID 1934). Format: functional. To be noted: Homo sapiens.
Test [24] has as its system BJ. As to the kind of experiment: cytotoxicity toward Ras-transformed BJeLR fibroblasts, dose response, cell-based, alamar blue fluorescence, cherrypicked samples (AID 2631).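 Also: confirmatory dose-response assay in RAS-dependent BJ fibroblasts engineered with TERT, LT and ST, with cytotoxicity read by fluorescence.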 It counts as functional. To be noted: Homo sapiens. On the technique in general: The colour change of resazurin is a common sign of viable cells or microbes.
A further test relates to INS1. As to the kind of experiment: beta cell apoptosis inhibitors, cytokine rescue, dose response, luminescence, retest (AID 449756).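 Also: cell death triggered by IL-1 beta plus TNF-alpha plus IFN-gamma mixture; protective hits raise ATP signal compared with cytokine alone wells.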 Format: functional, cell-based. The settings on record: Rattus norvegicus.
Test [25] is described as follows: HEK293T cell cytotoxicity, dose response, cytotoxicity control for HIV Vif inhibitor project, cherry-picks (AID 652208). Format: functional, cell-based.
A short description of test [26]: HEp-2 cell cytotoxicity, dose response, cytotoxicity control for RSV inhibitor project, HTS (AID 2410). It counts as functional. To be noted: human respiratory syncytial virus.
The target of test [27] is T3, Oxysterols receptor LXR-beta (Homo sapiens, UniProt P55055).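 Also: Cell-based luminescence dose-response assay of agonist activity at LXR, run as a confirmatory counterscreen to a daf-12 agonist screen; HEK293 cells with Gal4-LXR fusion and GAL4-driven luciferase reporter; agonist potency from rising luciferase signal of a Gal4-LXR reporter.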
T3 sequence (P55055 whole entry): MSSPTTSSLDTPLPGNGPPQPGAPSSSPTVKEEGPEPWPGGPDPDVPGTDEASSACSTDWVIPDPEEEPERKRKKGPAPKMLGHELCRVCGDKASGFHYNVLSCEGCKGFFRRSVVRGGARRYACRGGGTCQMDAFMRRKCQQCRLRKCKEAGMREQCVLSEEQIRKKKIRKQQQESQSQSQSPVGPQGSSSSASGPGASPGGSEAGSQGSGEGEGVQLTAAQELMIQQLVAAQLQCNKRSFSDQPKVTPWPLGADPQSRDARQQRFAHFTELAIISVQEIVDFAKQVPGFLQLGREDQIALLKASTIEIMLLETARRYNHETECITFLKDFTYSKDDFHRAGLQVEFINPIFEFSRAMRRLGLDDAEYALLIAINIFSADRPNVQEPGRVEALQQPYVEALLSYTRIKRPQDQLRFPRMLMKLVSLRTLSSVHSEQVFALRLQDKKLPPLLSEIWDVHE
It counts as functional, cell-based.

Test [28] can be described thus: cells. This is another data set of the same source.

Calls of active or inactive are those of the source.

For orientation: IC50 means the concentration needed to halve the response being measured. As for `Cc1ccc(C(=O)Nc2ncccc2O)o1`, the IC50 in the test “cells [1]” is > 67.6 µM (inactive); in test [2], 24.7 µM (inactive).

A word on the AC50: it is the midpoint of the concentration-response curve, whichever way the signal moves. Regarding `C[C@H](CO)N1C[C@H](C)[C@H](CN(C)Cc2ccc(C(F)(F)F)cc2)OCCCC[C@H](C)Oc2ccc(NC(=O)Nc3ccc4c(c3)OCO4)cc2C1=O`, the AC50 at Paired box protein Pax-8 is 5.42 µM (active); in test [3] it was 28.6 µM (active); in test [4], 40.3 µM (active).

`CC(=O)Nc1cccc(-c2ccnc3c2CC(C(=O)NCc2cccc(Cl)c2)O3)c1` (centres undefined): the AC50 was > 52 µM (inactive) in test [5], > 52 µM (inactive) in “cells [6]” and 40.1 µM (active) in “cells [7]”.

Take `O=C1N=C(S)SC1=Cc1ccc(N(CCCl)CCCl)cc1`: in test [8], the EC50 was 5.45 µM (active). The AC50 in test [9] is 66.7 µM (active).

As to `O=C(c1ccc(F)cc1)c1cn(Cc2ccc(F)cc2)c2cc3c(cc2c1=O)OCCO3`, the figures for the half-inhibitory concentration (IC50) on Major prion protein and in “cells [10]” were 3.03 µM (active) and > 138 µM (inactive), respectively.

In the case of `CCN(C)C[C@H]1Oc2c(NC(=O)c3ccncc3)cccc2C(=O)N(C(C)C)[C@@H]1C`, in [11], the AC50 was 0.0842 µM (active).

For `COc1cccc(CN(C)C[C@H]2Oc3c(NC(=O)c4ccncc4)cccc3C(=O)N([C@@H](C)CO)C[C@@H]2C)c1`, in test [11], the half-maximal activity concentration (AC50) was 0.0568 µM (active).

As for `COc1ccc2c(Cl)c(C(N)=O)sc2c1`, the EC50 was > 79.4 µM (inactive) in test [12], > 79.4 µM (not active) in test [13] and 16.7 µM (not active) in [14]. Moreover, the values for the IC50 (in test [15]; at Major prion protein; in the test “cells [10]”) were 68.3 µM (not active), 2.46 µM (active) and > 138 µM (inactive), respectively.

`CN1CCN(c2ccc(-c3cccc(NC(=O)COc4ccccc4)c3)nn2)CC1`: the IC50 (in “cells [1]”; in test [2]) was > 67.5 µM (inactive) in each case.

In general, Ki refers to the equilibrium dissociation constant of an inhibitor or competing ligand from its target. Consider `COc1ccc(C2C(C(=O)c3ccco3)=C(O)C(=O)N2CCc2ccccc2)cc1OC` (centres undefined), for which the Ki on fMet-Leu-Phe receptor is 36.9 µM (inactive).

In the case of `Cn1c(=O)c2cc(NC(=O)NCc3ccccc3)ccc2n1C/C=C/c1ccccc1`, the values for the AC50 in [16] and in [17] were 18.2 µM (active) and 36.9 µM (active), respectively.

`CC1CN(S(=O)(=O)c2ccc(C(=O)NCCCn3ccnc3)cc2)CC(C)O1` (centres undefined): the EC50 is 11.1 µM (active) in [18]; > 150 µM (not active) in the test with BJ [19]; 7.94 µM (active) in [20]; 5.83 µM (inconclusive) in the test with BJ [21]; 3.76 µM (inconclusive) in the test on BJ [22]; 13.2 µM (active) in [23]. Moreover, in the test with BJ [24], the EC50 was 0.39 µM (active). The AC50 in the test on INS1 is 1.17 µM (active); in test [25] it was > 52 µM (inactive).

On to `COc1ccc(CN2CCC(C(=O)Nc3ccc(Oc4cccnc4)cc3)CC2)cc1`, for which the AC50 in [9] is > 100 µM (inactive).

In general, CC50 refers to the concentration at which the toxic effect on the cells reaches its halfway point. For `Cc1nc2c(-c3ccc(F)cc3)c(C)nn2c(C)c1CCC(=O)NC(C)CCc1ccco1` (centres undefined), in [26], the CC50 was > 50 µM (active). Besides, the Ki on fMet-Leu-Phe receptor was > 66.7 µM (inactive).

As for `c1ccc(-c2csc(Nc3ccc4c(c3)OCCO4)n2)cc1`, the EC50 (in [27]; in “cells [28]”) was > 67.5 µM (inactive) each time.
